Numbers after ± are expanded uncertainties.
Assay: xn = mol fraction of the nth substance listed
Details: Gas, isochoric method

F/C=C/C(F)(F)F [trans-1,3,3,3-tetrafluoropropene] + N#N
Details	specific volume [m3/kg]
263.05 K, 383.1 kPa, x2 = 0.75	0.114 ± 0.01
263.16 K, 622.6 kPa, x2 = 0.746	0.069 ± 0.01
273.12 K, 398.4 kPa, x2 = 0.75	0.114 ± 0.01
273.13 K, 648.5 kPa, x2 = 0.746	0.069 ± 0.01
273.19 K, 464.3 kPa, x2 = 0.5	0.066 ± 0.01
283.07 K, 291.8 kPa, x2 = 0.495	0.11 ± 0.01
283.1 K, 413.5 kPa, x2 = 0.75	0.114 ± 0.01
283.1 K, 673.7 kPa, x2 = 0.746	0.069 ± 0.01
283.12 K, 485.7 kPa, x2 = 0.5	0.066 ± 0.01
293.08 K, 302.8 kPa, x2 = 0.495	0.11 ± 0.01
293.09 K, 699 kPa, x2 = 0.746	0.069 ± 0.01
293.11 K, 506.5 kPa, x2 = 0.5	0.066 ± 0.01
293.13 K, 428.7 kPa, x2 = 0.75	0.114 ± 0.01
303.05 K, 313.9 kPa, x2 = 0.495	0.11 ± 0.01
303.16 K, 525.9 kPa, x2 = 0.5	0.066 ± 0.01
303.17 K, 443.8 kPa, x2 = 0.75	0.114 ± 0.01
303.18 K, 196.3 kPa, x2 = 0.254	0.136 ± 0.01
303.19 K, 381.3 kPa, x2 = 0.25	0.069 ± 0.01
303.35 K, 724.8 kPa, x2 = 0.746	0.069 ± 0.01
313.14 K, 203.2 kPa, x2 = 0.254	0.136 ± 0.01
313.17 K, 396.1 kPa, x2 = 0.25	0.069 ± 0.01
313.17 K, 545.2 kPa, x2 = 0.5	0.066 ± 0.01
313.18 K, 324.5 kPa, x2 = 0.495	0.11 ± 0.01
313.18 K, 458.8 kPa, x2 = 0.75	0.114 ± 0.01
313.2 K, 749.1 kPa, x2 = 0.746	0.069 ± 0.01
323.13 K, 209.9 kPa, x2 = 0.254	0.136 ± 0.01
323.15 K, 410.2 kPa, x2 = 0.25	0.069 ± 0.01
323.16 K, 473.2 kPa, x2 = 0.75	0.114 ± 0.01
323.17 K, 335.3 kPa, x2 = 0.495	0.11 ± 0.01
323.17 K, 564 kPa, x2 = 0.5	0.066 ± 0.01
323.17 K, 773.9 kPa, x2 = 0.746	0.069 ± 0.01
333.16 K, 423.9 kPa, x2 = 0.25	0.069 ± 0.01
333.17 K, 582.8 kPa, x2 = 0.5	0.066 ± 0.01
333.17 K, 799.4 kPa, x2 = 0.746	0.069 ± 0.01
333.18 K, 346.1 kPa, x2 = 0.495	0.11 ± 0.01
333.19 K, 488.7 kPa, x2 = 0.75	0.114 ± 0.01
333.34 K, 216.7 kPa, x2 = 0.254	0.136 ± 0.01
343.11 K, 601.4 kPa, x2 = 0.5	0.066 ± 0.01
343.12 K, 223.3 kPa, x2 = 0.254	0.136 ± 0.01
343.12 K, 356.8 kPa, x2 = 0.495	0.11 ± 0.01
343.13 K, 823.9 kPa, x2 = 0.746	0.069 ± 0.01
343.14 K, 438.2 kPa, x2 = 0.25	0.069 ± 0.01
343.14 K, 503.4 kPa, x2 = 0.75	0.114 ± 0.01
353.05 K, 451.9 kPa, x2 = 0.25	0.069 ± 0.01
353.08 K, 229.5 kPa, x2 = 0.254	0.136 ± 0.01
353.1 K, 619.5 kPa, x2 = 0.5	0.066 ± 0.01
353.11 K, 367.5 kPa, x2 = 0.495	0.111 ± 0.01
353.13 K, 518.1 kPa, x2 = 0.75	0.114 ± 0.01
353.13 K, 848.5 kPa, x2 = 0.746	0.069 ± 0.01
363.06 K, 236.3 kPa, x2 = 0.254	0.136 ± 0.01
363.1 K, 378.2 kPa, x2 = 0.495	0.111 ± 0.01
363.1 K, 465.8 kPa, x2 = 0.25	0.069 ± 0.01
363.1 K, 872.9 kPa, x2 = 0.746	0.069 ± 0.01
363.12 K, 638.7 kPa, x2 = 0.5	0.066 ± 0.01
363.25 K, 533.3 kPa, x2 = 0.75	0.114 ± 0.01
373 K, 242.6 kPa, x2 = 0.254	0.136 ± 0.01
373.07 K, 547.3 kPa, x2 = 0.75	0.114 ± 0.01
373.09 K, 389.2 kPa, x2 = 0.495	0.111 ± 0.01
373.09 K, 657 kPa, x2 = 0.5	0.066 ± 0.01
373.1 K, 479.5 kPa, x2 = 0.25	0.069 ± 0.01
373.16 K, 897.7 kPa, x2 = 0.746	0.069 ± 0.01
383.05 K, 675.5 kPa, x2 = 0.5	0.066 ± 0.01
383.06 K, 494.4 kPa, x2 = 0.25	0.069 ± 0.01
383.08 K, 922.8 kPa, x2 = 0.746	0.069 ± 0.01
383.09 K, 399.9 kPa, x2 = 0.495	0.111 ± 0.01
383.09 K, 562.6 kPa, x2 = 0.75	0.114 ± 0.01
383.26 K, 249.6 kPa, x2 = 0.254	0.136 ± 0.01
393.05 K, 508.1 kPa, x2 = 0.25	0.069 ± 0.01
393.06 K, 577.5 kPa, x2 = 0.75	0.114 ± 0.01
393.06 K, 694 kPa, x2 = 0.5	0.066 ± 0.01
393.08 K, 410.6 kPa, x2 = 0.495	0.111 ± 0.01
393.13 K, 947.3 kPa, x2 = 0.746	0.069 ± 0.01
393.14 K, 256.3 kPa, x2 = 0.254	0.136 ± 0.01
402.99 K, 421.1 kPa, x2 = 0.495	0.111 ± 0.01
403.04 K, 521.2 kPa, x2 = 0.25	0.069 ± 0.01
403.04 K, 592.5 kPa, x2 = 0.75	0.114 ± 0.01
403.05 K, 712.5 kPa, x2 = 0.5	0.066 ± 0.01
403.1 K, 971.7 kPa, x2 = 0.746	0.069 ± 0.01
403.14 K, 262.9 kPa, x2 = 0.254	0.137 ± 0.01
413 K, 432.1 kPa, x2 = 0.495	0.111 ± 0.01
413.01 K, 535.2 kPa, x2 = 0.25	0.069 ± 0.01
413.04 K, 995.8 kPa, x2 = 0.746	0.069 ± 0.01
413.06 K, 607.4 kPa, x2 = 0.75	0.114 ± 0.01
413.1 K, 731 kPa, x2 = 0.5	0.066 ± 0.01
413.13 K, 269.4 kPa, x2 = 0.254	0.137 ± 0.01
